Experimental data: US8575091B1, “Amylin analogues and pharmaceutical compositions thereof” (Novo Nordisk A/S, priority 2012, dated 2013)
Numbered stars: 1 amine (or outer) side, 2 acyl side, 3 side chain; on linkers, the order of the positions; unused ones are H or OH. Bridge positions count the residues as written; N and C are the ends. Side chains are listed from the residue outwards. Peptide text beside a SMILES is read from it. * marks the point of attachment. C20 diacid = O=C(O)CCCCCCCCCCCCCCCCCCC(=O)*; γGlu = O=C(O)[C@H](CCC(=O)[*:2])N[*:1]

Experiments:
Sprague-Dawley rats = assay: Assay (XI) single subcutaneous administration, food intake monitored for 48 hours in rats; format: in vivo, rat; conditions: single subcutaneous 30 nmol/kg
Method: Assay (XI)—Effect from Single Subcutaneous Administration of Analogue on […] in Rats
Male Sprague-Dawley rats (Taconic Europe, ˜250 g at test date) were acclimatized to reversed day light cycle (lights on from 10 PM to 10 AM) and single housing in online food intake monitoring system (Ellegaard MBRose, Denmark) prior to study start. Rats were divided in groups of five and subcutaneously dosed with test compound (30 nmol/kg) and food intake was monitored for 48 hours hereafter. Data are illustrated in graphs as mean±SEM.

Wistar rats = assay: Assay (XII) single subcutaneous administration, plasma calcium in rats; format: in vivo, rat; conditions: for Plasma calcium red (%) 0-12 h: single s.c., maximal reduction 0-12 h, compared to vehicle; for suppression of plasma calcium level relative to vehicle: single subcutaneous, over 24 hours
Method: Assay (XII)—Effect from Single Subcutaneous Administration of Analogue on Plasma Calcium in Rats
Male Wistar rats (Taconic Europe, ˜250 g at test date) were acclimatized to handling prior to the study. Rats were divided in groups of five and subcutaneously dosed with test compound at time=0. At time T=−15 min; 1 h, 2 h, 4 h, 7 h, 12 h, and 24 h a blood sample was obtained and heparin stabilized plasma was analysed for total calcium (Cobas, Hitachi). Data are illustrated in graphs as mean±SEM.

[1] = biological target: T1, human amylin receptor (amylin 3(a) receptor: human calcitonin receptor + RAMP-3) (Homo sapiens, UniProt O60896+P30988); assay: Assay (II)a functional assay, human amylin receptor (CRE luciferase, BHK cells); format: cell-based; conditions: functional assay, human amylin receptor; read-out: hAmylin-R funct. EC50
T1 construct: expressed in transfected cells
T1 sequence (P30988 25-474): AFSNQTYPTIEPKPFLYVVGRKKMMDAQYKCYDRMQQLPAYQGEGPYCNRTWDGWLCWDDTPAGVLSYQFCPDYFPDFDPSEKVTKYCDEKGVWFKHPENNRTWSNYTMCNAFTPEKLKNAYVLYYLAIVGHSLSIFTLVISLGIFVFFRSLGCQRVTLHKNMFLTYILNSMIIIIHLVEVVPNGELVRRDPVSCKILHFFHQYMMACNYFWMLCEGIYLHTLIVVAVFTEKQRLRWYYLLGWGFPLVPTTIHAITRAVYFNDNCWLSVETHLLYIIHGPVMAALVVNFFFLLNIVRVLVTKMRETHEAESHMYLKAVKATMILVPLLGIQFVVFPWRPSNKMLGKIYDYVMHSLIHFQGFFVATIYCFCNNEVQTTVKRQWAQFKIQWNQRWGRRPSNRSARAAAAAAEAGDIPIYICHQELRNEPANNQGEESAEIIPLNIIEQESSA
T1 sequence (O60896 24-148 partner): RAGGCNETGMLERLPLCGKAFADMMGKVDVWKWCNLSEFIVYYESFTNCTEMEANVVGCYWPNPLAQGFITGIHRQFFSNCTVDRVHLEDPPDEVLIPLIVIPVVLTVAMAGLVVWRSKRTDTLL

human amylin receptor = biological target: T2, human amylin receptor (Homo sapiens, UniProt O60896+P30988); assay: Assay (V) binding to the human amylin receptor (SPA, 125I-rat amylin); conditions: human amylin receptor membranes, SPA; read-out: hAmylin-R bind IC50
T2 construct: expressed in transfected cells
T2 sequence (P30988 25-474): T1 sequence (P30988 25-474)
T2 sequence (O60896 24-148 partner): T1 sequence (O60896 24-148 partner)
In short: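 SPA competition binding on membranes from Amylin 3(a)/CRE-luc cells, 35 ng/μL membranes with 0.05 mg/well beads. Buffer 50 mM Hepes pH 7.4, 1 mM CaCl2, 5 mM MgCl2, 0.1% OA, 0.02% Tween20. IC50 from one-site competition fit as affinity measure.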

[2] = biological target: T3, human calcitonin receptor (Homo sapiens, UniProt P30988); assay: Assay (II)a functional assay, human calcitonin receptor (CRE luciferase, BHK cells);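 also: luminescence from a CRE-driven luciferase reporter, read by single photon counting after cells were exposed to test samples for 3 h at 37 °C under 5% CO2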; format: cell-based; conditions: read-out: hCTR funct. EC50
T3 construct: expressed in transfected cells
T3 sequence (P30988 25-474): T1 sequence (P30988 25-474)

[3] = biological target: T3, human calcitonin receptor; assay: Assay (VII) binding to the human calcitonin receptor (SPA, 125I-Calcitonin); conditions: read-out: hCTR bind IC50;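 also: cell membranes coupled to SPA beads, competitive displacement read by scintillation counting, IC50 derived from a one-site competition fit as a measure of receptor affinity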
rat amylin receptor = biological target: T4, rat amylin receptor (Rattus norvegicus, UniProt P32214+Q9JJ73); assay: Assay (VI) binding to the rat amylin receptor; conditions: rCTR bind IC50 divided by rAmylin-R bind IC50
T4 construct: expressed in transfected cells; host or cells: BHK tk'ts 13 (transient, FuGENE 6), membranes
T4 sequence (P32214 25-479 isoform P32214-2 limits assumed): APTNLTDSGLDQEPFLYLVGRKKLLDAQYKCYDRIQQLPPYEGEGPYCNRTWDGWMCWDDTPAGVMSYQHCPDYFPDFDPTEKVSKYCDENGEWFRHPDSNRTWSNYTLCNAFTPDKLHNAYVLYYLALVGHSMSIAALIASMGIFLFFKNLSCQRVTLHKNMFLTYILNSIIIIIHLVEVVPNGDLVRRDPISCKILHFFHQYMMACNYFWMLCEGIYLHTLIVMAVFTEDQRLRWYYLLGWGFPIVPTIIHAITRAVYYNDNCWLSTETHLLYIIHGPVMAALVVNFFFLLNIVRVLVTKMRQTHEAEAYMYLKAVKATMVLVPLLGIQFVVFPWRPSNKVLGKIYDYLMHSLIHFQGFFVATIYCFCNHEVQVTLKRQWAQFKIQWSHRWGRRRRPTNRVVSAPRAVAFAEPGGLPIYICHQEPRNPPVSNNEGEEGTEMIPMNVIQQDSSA
T4 sequence (Q9JJ73 23-147 partner): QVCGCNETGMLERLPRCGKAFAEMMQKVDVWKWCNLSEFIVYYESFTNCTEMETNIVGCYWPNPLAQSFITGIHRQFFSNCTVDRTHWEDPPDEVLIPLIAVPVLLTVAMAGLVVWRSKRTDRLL
In short: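 Binding as in the human amylin receptor binding assay, but with membranes from BHK tk'ts 13 cells transiently co-transfected with rat calcitonin receptor and rat RAMP 3 […]. Membranes were prepared from cells harvested about 48 hours after transfection.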

Structure (SMILES): CC[C@H](C)[C@H](NC(=O)[C@H](C)NC(=O)CNC(=O)[C@H](Cc1ccccc1)NC(=O)[C@H](CC(N)=O)NC(=O)[C@@H]1CCCN1C(=O)[C@H](CO)NC(=O)[C@H](CO)NC(=O)[C@H](Cc1c[nH]cn1)NC(=O)[C@H](CCCNC(=N)N)NC(=O)[C@H](CC(C)C)NC(=O)[C@H](Cc1ccccc1)NC(=O)[C@H](CC(N)=O)NC(=O)[C@H](C)NC(=O)[C@H](CC(C)C)NC(=O)[C@H](CCCNC(=N)N)NC(=O)[C@H](CCC(N)=O)NC(=O)[C@@H](NC(=O)[C@H](C)NC(=O)[C@@H]1CSSC[C@H](NC(=O)[C@@H](N)CCCCNC(=O)CC[C@H](NC(=O)CC[C@H](NC(=O)CCCCCCCCCCCCCCCCCCC(=O)O)C(=O)O)C(=O)O)C(=O)N[C@@H](CC(N)=O)C(=O)N[C@@H]([C@@H](C)O)C(=O)N[C@@H](C)C(=O)N[C@@H]([C@@H](C)O)C(=O)N1)[C@@H](C)O)C(=O)N1CCC[C@H]1C(=O)N[C@@H](CO)C(=O)N[C@@H](CO)C(=O)N[C@H](C(=O)N[C@@H](CC(N)=O)C(=O)N[C@H](C(=O)NCC(=O)N[C@@H](Cc1c[nH]cn1)C(=O)N[C@@H](CC(N)=O)C(=O)N[C@H](C(=O)N[C@@H](Cc1ccc(O)cc1)C(N)=O)[C@@H](C)O)C(C)C)[C@@H](C)O [Example 86] (H-K([γGlu-γGlu-C20 diacid])CNTATCATQRLANFLRHSSPNFGAIPSSTNVGHNTY-NH2; disulfide 2-7 (inferred); N-terminus and C-terminus assumed)
- food intake monitored over 48 hours versus vehicle (Sprague-Dawley rats): reduces food intake in rats
- Plasma calcium red (%) 0-12 h (Wistar rats; 30 nmol/kg): 0%
- suppression of plasma calcium level relative to vehicle (Wistar rats; increasing doses (all doses tested)): None of the doses trigger a notable suppression of the calcium level

Structure (SMILES): CC[C@H](C)[C@H](NC(=O)[C@H](C)NC(=O)CNC(=O)[C@H](Cc1ccccc1)NC(=O)[C@H](CC(N)=O)NC(=O)[C@@H]1CCCN1C(=O)[C@H](CO)NC(=O)[C@H](CO)NC(=O)[C@H](Cc1c[nH]cn1)NC(=O)[C@H](CCCNC(=N)N)NC(=O)[C@H](CC(C)C)NC(=O)[C@H](Cc1ccccc1)NC(=O)[C@H](CCC(=O)O)NC(=O)[C@H](C)NC(=O)[C@H](CC(C)C)NC(=O)[C@H](CCCNC(=N)N)NC(=O)[C@H](CCC(N)=O)NC(=O)[C@@H](NC(=O)[C@H](C)NC(=O)[C@@H]1CSSC[C@H](NC(=O)[C@@H](N)CCCCNC(=O)CC[C@H](NC(=O)CC[C@H](NC(=O)CCCCCCCCCCCCCCCCCCC(=O)O)C(=O)O)C(=O)O)C(=O)N[C@@H](CC(N)=O)C(=O)N[C@@H]([C@@H](C)O)C(=O)N[C@@H](C)C(=O)N[C@@H]([C@@H](C)O)C(=O)N1)[C@@H](C)O)C(=O)N1CCC[C@H]1C(=O)N[C@@H](CO)C(=O)N[C@@H](CO)C(=O)N[C@H](C(=O)N[C@@H](CC(N)=O)C(=O)N[C@H](C(=O)NCC(=O)N1CCC[C@H]1C(=O)N[C@@H](CCCNC(=N)N)C(=O)N[C@H](C(=O)N[C@@H](Cc1ccc(O)cc1)C(N)=O)[C@@H](C)O)C(C)C)[C@@H](C)O [Example 110] (H-K([γGlu-γGlu-C20 diacid])CNTATCATQRLAEFLRHSSPNFGAIPSSTNVGPRTY-NH2; disulfide 2-7)
- food intake monitored over 48 hours versus vehicle (Sprague-Dawley rats): reduces food intake in rats
- Plasma calcium red (%) 0-12 h (Wistar rats; 30 nmol/kg): 8%
- suppression of plasma calcium level relative to vehicle (Wistar rats; 30 nmol/kg): None of the example compounds at 30 nmol/kg trigger a notable suppression of the calcium level

Structure (SMILES): CC[C@H](C)[C@H](NC(=O)[C@H](C)NC(=O)CNC(=O)[C@H](Cc1ccccc1)NC(=O)[C@H](CC(N)=O)NC(=O)[C@@H]1CCCN1C(=O)[C@H](CO)NC(=O)[C@H](CO)NC(=O)[C@H](Cc1c[nH]cn1)NC(=O)[C@H](CCCNC(=N)N)NC(=O)[C@H](CC(C)C)NC(=O)[C@H](Cc1ccccc1)NC(=O)[C@H](CCC(=O)O)NC(=O)[C@H](C)NC(=O)[C@H](CC(C)C)NC(=O)[C@H](CCCNC(=N)N)NC(=O)[C@H](CCC(N)=O)NC(=O)[C@@H](NC(=O)[C@H](C)NC(=O)[C@@H]1CSSC[C@H](NC(=O)[C@@H](N)CCCCNC(=O)CC[C@H](NC(=O)CCCCCCCCCCCCCCCCCCC(=O)O)C(=O)O)C(=O)N[C@@H](CC(N)=O)C(=O)N[C@@H]([C@@H](C)O)C(=O)N[C@@H](C)C(=O)N[C@@H]([C@@H](C)O)C(=O)N1)[C@@H](C)O)C(=O)N1CCC[C@H]1C(=O)N[C@@H](CO)C(=O)N[C@@H](CO)C(=O)N[C@H](C(=O)N[C@@H](CC(N)=O)C(=O)N[C@H](C(=O)NCC(=O)N1CCC[C@H]1C(=O)N[C@@H](Cc1c[nH]cn1)C(=O)N[C@H](C(=O)N[C@@H](Cc1ccc(O)cc1)C(N)=O)[C@@H](C)O)C(C)C)[C@@H](C)O [Example 118] (H-K([γGlu-C20 diacid])CNTATCATQRLAEFLRHSSPNFGAIPSSTNVGPHTY-NH2; disulfide 2-7)
- EC50 [1]: 0.101 nM
- IC50 (human amylin receptor): 0.179 nM
- Plasma calcium red (%) 0-12 h (Wistar rats; 30 nmol/kg): 26%
- EC50 [2]: 1.45 nM
- IC50 [3]: 3.8 nM

Structure (SMILES): CC[C@H](C)[C@H](NC(=O)[C@H](C)NC(=O)CNC(=O)[C@H](Cc1ccccc1)NC(=O)[C@H](CC(N)=O)NC(=O)[C@@H]1CCCN1C(=O)[C@H](CO)NC(=O)[C@H](CO)NC(=O)[C@H](Cc1c[nH]cn1)NC(=O)[C@H](CCCNC(=N)N)NC(=O)[C@H](CC(C)C)NC(=O)[C@H](Cc1ccccc1)NC(=O)[C@H](CCC(=O)O)NC(=O)[C@H](C)NC(=O)[C@H](CC(C)C)NC(=O)[C@H](CCCNC(=N)N)NC(=O)[C@H](CCC(N)=O)NC(=O)[C@@H](NC(=O)[C@H](C)NC(=O)[C@@H]1CSSC[C@H](NC(=O)[C@@H](N)CCCCNC(=O)CC[C@H](NC(=O)CC[C@H](NC(=O)CCCCCCCCCCCCCCCCCCC(=O)O)C(=O)O)C(=O)O)C(=O)N[C@@H](CC(N)=O)C(=O)N[C@@H]([C@@H](C)O)C(=O)N[C@@H](C)C(=O)N[C@@H]([C@@H](C)O)C(=O)N1)[C@@H](C)O)C(=O)N1CCC[C@H]1C(=O)N[C@@H](CO)C(=O)N[C@@H](CO)C(=O)N[C@H](C(=O)N[C@@H](CC(N)=O)C(=O)N[C@H](C(=O)NCC(=O)N1CCC[C@H]1C(=O)N[C@@H](Cc1c[nH]cn1)C(=O)N[C@H](C(=O)N[C@@H](Cc1ccc(O)cc1)C(N)=O)[C@@H](C)O)C(C)C)[C@@H](C)O [Example 124] (H-K([γGlu-γGlu-C20 diacid])CNTATCATQRLAEFLRHSSPNFGAIPSSTNVGPHTY-NH2; disulfide 2-7)
- EC50 [1]: 0.172 nM
- IC50 (human amylin receptor): 0.377 nM
- Ratio rCT/rAmylin binding (rat amylin receptor; Table 7b): 73.0
- Ratio rCT/rAmylin binding (rat amylin receptor; Table 7c): 73.0
- Ratio rCT/rAmylin binding (rat amylin receptor): 73.0
- Plasma calcium red (%) 0-12 h (Wistar rats; 10 nmol/kg): 3%
- Plasma calcium red (%) 0-12 h (Wistar rats; 30 nmol/kg): 11%
- EC50 [2]: 2.83 nM
- IC50 [3]: 10.3 nM
